Source: US4922021A, “New alkylene diamine derivatives” (BASF Aktiensellschaft, priority 1981, dated 1990)

Tests used:
in vivo = conditions: mouse, ip
[1] = tested on: aconitin-induced arrhythmia; conditions: mouse, in vivo; for Delay in the appearance time of arrhythmia: po, 100 mg/kg
[2] = tested on: aconitin-induced arrhythmia; experiment: animal or person; conditions: Mus musculus, ip, read-out: Delay in time of appearance of arrhythmia
[3] = tested on: barium chloride-induced arrhythmia; experiment: Barium chloride-induced arrhythmia in awake rabbits; assay type: in vivo; conditions: i.v., 2 mg/kg; arrhythmia suspended for at least 3 minutes
Procedure: The compounds to be tested were administered intravenously to the animals 3 minutes after treating them with barium chloride, and the effect was recorded. It was regarded as a positive protecting effect when the compound suspended the arrhythmic condition for at least 3 minutes.

[4] = tested on: ouabain-induced arrhythmia; experiment: Ouabain-induced arrhythmia in anaesthetized dogs; assay type: in vivo; conditions: i.v.; for Complete suspension, number of cases: protection > 30 min = complete
Procedure: Anaesthetized dogs of both sexes were treated intravenously with an infusion of 60 /ug/kg of ouabain to provoke arrhythmia, and the arrhythmic state was maintained with an ouabain dose 60 times less than the initial. In this way a ventricular tachycardia or tachyarrhythmia lasting for more than 180 minutes was provoked. The compounds were tested during this period. The period of recovered normal sinus rhythm was recorded, and when a compound exerted protective effect for more than 30 minutes, this fact was regarded as complete protection. The tests were performed essentially according to the method of Piascik et al. [Can.
Examination of the anti-arrhythmic effect in dogs anaesthetized with a 30
of pentobarbital sodium and treated with ouabain

[5] = tested on: fibrillation threshold of the heart; experiment: Determination of the fibrillation threshold in anaesthetized cats; assay type: in vivo; conditions: i.v.
Text: The chests of the cats were opened under chloralose-urethane anaesthesia a bipolar stimulating electrode was fixed onto the heart, and the heart was stimulated electrically with a frequency of 20 Hz, under continuously increasing current strength, until a fibrillo-flattern could be observed. This current strength was regarded as the fibrillation threshold of the animal.

[6] = tested on: myocardial contractile force, arterial blood pressure and pulse rate; experiment: Inotropic effects (myocardial contractile force) in anaesthetized cats; assay type: in vivo; conditions: i.v.; for Contractility, change: basal 100
Procedure: Cats were anaesthetized with chloralose-urethane, a cannula was lead into the femoral artery, and the cannula was connected, through a Statham P 23 Db pressure sensor, to a Hellige recorder, where the arterial blood pressure and the pulse rate were recorded. The animals were respirated artifically, their chests were opened, and a strain gage was sutured on the left heart. The strain gage was connected to the Hellige recorder, and the variations in cardiac contractile force were recorded. The test compounds were administered to the animals intravenously through a cannula.

[7] = tested on: systemic and pulmonary circulation; experiment: Effects on the systemic and pulmonary circulation of awake cats; assay type: in vivo; conditions: i.v., 1.0 mg/kg
Text: Cats were anaesthetized with pentobarbital, and cannulas were placed into the carotis artery and, through the jugular vein, into the pulmonary artery. An additional cannula was placed into the jugular vein for the administration of the test compound. The cannulas were filled up with heparin in order to avoid blood clotting. Thereafter the wounds were sutured, and the cannulas were led below a bandage placed around the neck of the animal. 3 days after this operation the systemic arterial blood pressure, the pulmonary arterial pressure and the pulse rate of the awake animals were measured with a Hellige recorder, connected to the cannulas through a Statham P 23 Db type pressure transducer.

right ventricle = experiment: Electrophysiological tests on isolated rabbit heart, right ventricle; set-up: species or system rabbits; conditions: 2 mg/l, average
Procedure: (§1) Heart of rabbits of both sexes, weighing 1-2 kg, were removed, the right and left auricles and a segment of the right ventricle were prepared and placed into a vessel filled with nutrient solution. Bipolar platinum electrodes (a stimulating electrode and a lead electrode) were placed onto the organ strips, and the electric stimulus threshold and the speed of impulse condution were measured. The effective refractory period determined on the basis of the maximum driving frequency.

left auricle = experiment: Electrophysiological tests on isolated rabbit heart, left auricle; set-up: species or system rabbits; conditions: 2 mg/l, average
Procedure: as §1

Compound: Cc1cccc(C)c1NCC(C)N (centres unmarked) [1-(2,6-dimethylphenyl-amino)-2-amino-propane]
- LD50 (in vivo): 135 mg/kg
- Delay in the appearance time of arrhythmia [1]: +27.0%
- change in vivo at 25 mg/kg [2]: 17%
- change in vivo at 50 mg/kg [2]: 87.3%
- change in vivo at 100 mg/kg [2]: 124%

Compound: CCN(CC)CC(=O)Nc1c(C)cccc1C.Cl [N-(diethylamino-acetyl)-2,6-dimethylaniline hydrochloride, reference compound]
- Delay in the appearance time of arrhythmia [1]: +38.0%
- Protecting effect, number of animals [3]: 2/10
- change in vivo at 5 mg/kg [2]: 1%
- change in vivo at 10 mg/kg [2]: 16.2%
- change in vivo at 25 mg/kg [2]: 33.7%
- change in vivo at 40 mg/kg [2]: 70.1%
- Average time of partial suspension ([4]; 0.5 mg/kg): 0.5 min
- Complete suspension, number of cases ([4]; 0.5 mg/kg): 0/15
- Average time of partial suspension ([4]; 1.0 mg/kg): 1.6 min
- Complete suspension, number of cases ([4]; 1.0 mg/kg): 0/15
- Average time of partial suspension ([4]; 2.0 mg/kg): 2.5 min
- Complete suspension, number of cases ([4]; 2.0 mg/kg): 1/15
- Average time of partial suspension ([4]; 4.0 mg/kg): 2.5 min
- Complete suspension, number of cases ([4]; 4.0 mg/kg): 3/14
- Average time of partial suspension ([4]; 8.0 mg/kg): 7.5 min
- Complete suspension, number of cases ([4]; 8.0 mg/kg): 2/11
- Effect on the fibrillation threshold ([5]; 0.5 mg/kg): 0%
- Effect on the fibrillation threshold ([5]; 1.0 mg/kg): +2.0%
- Effect on the fibrillation threshold ([5]; 2.0 mg/kg): +17.7%
- Effect on the fibrillation threshold ([5]; 4.0 mg/kg): +39.1%

Compound: Cc1cccc(C)c1NC(C)CN.Cl.Cl (centres unmarked) [1-Amino-2-(2,6-dimethylphenyl-amino)-propane dihydrochloride]
- LD50 (in vivo): 155 mg/kg
- Delay in the appearance time of arrhythmia [1]: +41.0%
- change in vivo at 25 mg/kg [2]: 16.6%
- change in vivo at 50 mg/kg [2]: 60%
- change in vivo at 100 mg/kg [2]: 127%

Compound: Cc1cccc(C)c1NCCC(C)N (centres unmarked) [1-(2,6-dimethylphenyl-amino)-3-amino-butane]
- Delay in the appearance time of arrhythmia [1]: +84.0%
- Protecting effect, number of animals [3]: 5/10
- change in vivo at 10 mg/kg [2]: 0%
- change in vivo at 25 mg/kg [2]: 48%
- change in vivo at 50 mg/kg [2]: 87%
- change in vivo at 75 mg/kg [2]: 135%
- Average time of partial suspension ([4]; 0.5 mg/kg): 0.3 min
- Complete suspension, number of cases ([4]; 0.5 mg/kg): 1/16
- Average time of partial suspension ([4]; 1.0 mg/kg): 0.8 min
- Complete suspension, number of cases ([4]; 1.0 mg/kg): 1/15
- Average time of partial suspension ([4]; 2.0 mg/kg): 3.7 min
- Complete suspension, number of cases ([4]; 2.0 mg/kg): 2/15
- Average time of partial suspension ([4]; 4.0 mg/kg): 5.4 min
- Complete suspension, number of cases ([4]; 4.0 mg/kg): 7/14
- Average time of partial suspension ([4]; 8.0 mg/kg): 6.5 min
- Complete suspension, number of cases ([4]; 8.0 mg/kg): 3/5
- Effect on the fibrillation threshold ([5]; 0.5 mg/kg): +2.3%
- Effect on the fibrillation threshold ([5]; 1.0 mg/kg): +3.0%
- Effect on the fibrillation threshold ([5]; 2.0 mg/kg): +16.5%
- Effect on the fibrillation threshold ([5]; 4.0 mg/kg): +52.9%

Compound: Cc1cccc(C)c1NCC(C)N(C)C (centres unmarked) [1-(2,6-dimethylphenyl-amino)-2-dimethylamino-propane]
- LD50 (in vivo): 114 mg/kg
- column headed by drawing 10 (apparently LD50/ED50) ([1]; ip): 5.7
- Delay in the appearance time of arrhythmia [1]: +74.0%
- Protecting effect, number of animals [3]: 5/10
- change in vivo at 10 mg/kg [2]: 17.2%
- change in vivo at 25 mg/kg [2]: 72.7%
- change in vivo at 50 mg/kg [2]: 138%
- change in vivo at 75 mg/kg [2]: 212%
- Arterial blood pressure, change ([6]; 0.5 mg/kg): -7 mmHg
- Pulse/minute, change ([6]; 0.5 mg/kg): +10 /minute
- Contractility, change ([6]; 0.5 mg/kg): -5%
- Arterial blood pressure, change ([6]; 1.0 mg/kg): -10 mmHg
- Pulse/minute, change ([6]; 1.0 mg/kg): +15 /minute
- Arterial blood pressure, change ([6]; 2.0 mg/kg): -30 mmHg
- Pulse/minute, change ([6]; 2.0 mg/kg): -10 min⁻¹
- Arterial blood pressure, change ([6]; 5.0 mg/kg): -40 mmHg
- Pulse/minute, change ([6]; 5.0 mg/kg): -25 min⁻¹
- Contractility, change ([6]; 5.0 mg/kg): -33%
- Pulmonary arterial mean pressure, change ([7]; basal 13): +2.8 mmHg
- Arterial blood pressure, change ([7]; basal 102): +2 mmHg
- Pulse/minute, change ([7]; basal 190-200): -9 min⁻¹
- Change of the conduction time (right ventricle): +12%
- Change of the effective refractory period (right ventricle): +18%
- Change of the electric stimulus threshold (right ventricle): +6%
- Change of the conduction time (left auricle): +12%
- Change of the effective refractory period (left auricle): +20%
- Change of the electric stimulus threshold (left auricle): +32%
- Average time of partial suspension ([4]; 0.5 mg/kg): 0.4 min
- Complete suspension, number of cases ([4]; 0.5 mg/kg): 0/15
- Average time of partial suspension ([4]; 1.0 mg/kg): 1.5 min
- Complete suspension, number of cases ([4]; 1.0 mg/kg): 0/15
- Average time of partial suspension ([4]; 2.0 mg/kg): 5.7 min
- Complete suspension, number of cases ([4]; 2.0 mg/kg): 4/15
- Average time of partial suspension ([4]; 4.0 mg/kg): 6.4 min
- Complete suspension, number of cases ([4]; 4.0 mg/kg): 3/12
- Average time of partial suspension ([4]; 8.0 mg/kg): 10.0 min
- Complete suspension, number of cases ([4]; 8.0 mg/kg): 5/9
- Effect on the fibrillation threshold ([5]; 0.5 mg/kg): +8.6%
- Effect on the fibrillation threshold ([5]; 1.0 mg/kg): +12.2%
- Effect on the fibrillation threshold ([5]; 2.0 mg/kg): +27.0%
- Effect on the fibrillation threshold ([5]; 4.0 mg/kg): +53.9%

Compound: Cc1cccc(C)c1N(C)CC(C)N(C)C (centres unmarked) [1-[N-methyl-N-(2,6-dimethylphenyl)-amino]-2-dimethylamino-propane]
- change in vivo at 50 mg/kg [2]: 78%
